According to patent publication US8962608B2, “Cycloalkylnitrile pyrazole carboxamides as janus kinase inhibitors” (Merck Sharp & Dohme Corp., priority 2011, dated 2015):

These compounds were tested against JAK2 (recombinant purified GST-tagged catalytic domain) (Homo sapiens (Human), UniProt O60674) (assay: biochemical).
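Note: biochemical JAK kinase assay with HTRF detection.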

Chain of JAK2 (recombinant purified GST-tagged catalytic domain) (O60674 849-1124): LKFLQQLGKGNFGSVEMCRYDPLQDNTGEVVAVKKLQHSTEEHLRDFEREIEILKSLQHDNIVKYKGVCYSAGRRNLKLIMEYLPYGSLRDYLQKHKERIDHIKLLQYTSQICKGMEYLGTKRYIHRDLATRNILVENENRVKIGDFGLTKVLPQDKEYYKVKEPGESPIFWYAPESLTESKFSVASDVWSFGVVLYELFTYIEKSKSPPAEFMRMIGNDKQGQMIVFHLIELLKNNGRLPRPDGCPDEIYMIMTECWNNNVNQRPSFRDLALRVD

Row | Structure (SMILES) | IC50 [nM]
1 | CS(=O)(=O)c1ccc(Nc2nn(C3CCCC[C@@H]3C#N)cc2C(N)=O)cc1F (mixture of isomers) [Example 17-8, 1-[(1S,2S and 1R,2R)-2-cyanocyclohexyl]-3-{[3-fluoro-4-(methylsulfonyl)phenyl]amino}-1H-pyrazole-4-carboxamide] | 10
2 | N#C[C@H]1CCCC[C@@H]1n1cc(C(N)=O)c(Nc2cccnc2)n1 (racemic) [Example 17-13, 1-[(1S,2S and 1R,2R)-2-cyanocyclohexyl]-3-(pyridin-3-ylamino)-1H-pyrazole-4-carboxamide] | 36
3 | N#C[C@H]1CCCC[C@@H]1n1cc(C(N)=O)c(Nc2ccc(S(=O)(=O)N3CCOCC3)cc2)n1 (single isomer, unassigned) [Example 17-99, 1-[(1R,2R or 1S,2S)-2-cyanocyclohexyl]-3-{[4-(morpholin-4-ylsulfonyl)phenyl]amino}-1H-pyrazole-4-carboxamide] | 1
4 | CCNC1CCC(n2cc(C(N)=O)c(Nc3ccc(S(=O)(=O)C(F)(F)F)cc3)n2)[C@@H](C#N)C1 (mixture of isomers) [Example 27-5, 1-[(1S,2S and 1R,2R)-2-cyano-4-(ethylamino)cyclohexyl]-3-({4-[(trifluoromethyl)sulfonyl]phenyl}amino)-1H-pyrazole-4-carboxamide] | 11
5 | N#C[C@H]1C[C@H](O)CC[C@@H]1n1cc(C(N)=O)c(Nc2ccc(C(F)(F)F)c(F)c2)n1 (single isomer, unassigned) [Example 25-23, 1-[(1S,2S,4R or 1R,2R,4S)-2-cyano-4-hydroxycyclohexyl]-3-{[3-fluoro-4-(trifluoromethyl)phenyl]amino}-1H-pyrazole-4-carboxamide] | 28
6 | N#C[C@H]1C[C@H](OCC2CC2)CC[C@@H]1n1cc(C(N)=O)c(Nc2ccc([C@H](O)C(F)(F)F)cc2)n1 (single isomer, unassigned) [Example 26-7, 1-[(1S,2S,4R or 1R,2R,4S)-2-cyano-4-(cyclopropylmethoxy)cyclohexyl]-3-({4-[(1S or 1R)-2,2,2-trifluoro-1-hydroxyethyl]phenyl]amino)-1H-pyrazole-4-carboxamide] | 9
7 | CCS(=O)(=O)c1ccc(Nc2nn(C3CCCC[C@@H]3C#N)cc2C(N)=O)cc1 (mixture of isomers) [Example 17-10, 1-[(1S,2S and 1R,2R)-2-cyanocyclohexyl]-3-{[4-(ethylsulfonyl)phenyl]amino}-1H-pyrazole-4-carboxamide] | 4
8 | N#C[C@@H]1C[C@@H](OCC2CC2)CC[C@H]1n1cc(C(N)=O)c(Nc2ccc(F)cc2)n1 (single isomer, unassigned) [Example 26-10, 1-[(1R,2R,4S or 1S,2S,4R)-2-cyano-4-(cyclopropylmethoxy)cyclohexyl]-3-[(4-fluorophenyl)amino]-1H-pyrazole-4-carboxamide] | 102

More lines, now with the values ahead:

Row | IC50 [nM] | Structure (SMILES)
9 | 17 | N#C[C@H]1C[C@H](N2CCC2)CC[C@@H]1n1cc(C(N)=O)c(Nc2ccc([C@@H](O)C(F)(F)F)cc2)n1 (single isomer, unassigned) [Example 28-85, 1-[(1S,2S,4R or 1R,2R,4S)-4-azetidin-1-yl-2-cyanocyclohexyl]-3-({4-[(1R or 1S)-2,2,2-trifluoro-1-hydroxyethyl]phenyl}amino)-1H-pyrazole-4-carboxamide]
10 | 53 | N#C[C@H]1C[C@H](NCC(F)F)CC[C@@H]1n1cc(C(N)=O)c(Nc2ccnc(F)c2)n1 (single isomer, unassigned) [Example 28-106, 1-{(1S,2S,4R or 1R,2R,4S)-2-cyano-4-[(2,2-difluoroethyl)amino]cyclohexyl}-3-[(2-fluoropyridin-4-yl)amino]-1H-pyrazole-4-carboxamide]
11 | 5 | CC1(C)CN([C@H]2CC[C@H](n3cc(C(N)=O)c(Nc4ccc([C@H](O)C(F)(F)F)cc4)n3)[C@@H](C#N)C2)C1 (single isomer, unassigned) [Example 28-93, 1-[(1S,2S,4S or 1R,2R,4R)-2-cyano-4-(3,3-dimethylazetidin-1-yl)cyclohexyl]-3-({4-[(1S or 1R)-2,2,2-trifluoro-1-hydroxyethyl]phenyl}amino)-1H-pyrazole-4-carboxamide]
12 | 84 | N#C[C@H]1C[C@@H](N2CCC2)CC[C@@H]1n1cc(C(N)=O)c(Nc2ccc(Cl)c(F)c2)n1 (single isomer, unassigned) [Example 28-36, 1-[(1S,2S,4S or 1R,2R,4R)-4-azetidin-1-yl-2-cyanocyclohexyl]-3-[(4-chloro-3-fluorophenyl)amino]-1H-pyrazole-4-carboxamide]
13 | 83 | C[C@H](N[C@@H]1CC[C@H](n2cc(C(N)=O)c(Nc3ccc(S(=O)(=O)C(F)(F)F)cc3)n2)[C@@H](C#N)C1)C1CC1 (single isomer, unassigned) [Example 28-185, 1-[(1S,2S,4R or 1R,2R,4S)-2-cyano-4-{[(1S)-1-cyclopropylethyl]amino}cyclo-hexyl]-3-({4-[(trifluoromethyl)sulfonyl]phen-yl}amino)-1H-pyrazole-4-carboxamide]
14 | 26 | CN[C@H]1CC[C@H](n2cc(C(N)=O)c(Nc3ccc(Cl)c(F)c3)n2)[C@@H](C#N)C1 (single isomer, unassigned) [Example 28-43, 3-[(4-chloro-3-fluorophenyl)amino]-1-[(1S,2S,4S or 1R,2R,4R)-2-cyano-4-(methylamino)cyclohexyl]-1H-pyrazole-4-carboxamide]
15 | 103 | N#C[C@H]1C[C@@H](C(=O)NC2CCC2)CC[C@@H]1n1cc(C(N)=O)c(Nc2ccc(Cl)cc2)n1 (single isomer, unassigned) [Example 35-12, 3-[(4-chlorophenyl)amino]-1-[(1S,2S,4S or 1R,2R,4R)-2-cyano-4-(cyclobutylcarbamoyl)cyclohexyl]-1H-pyrazole-4-carboxamide]
16 | 5 | CS(=O)(=O)c1ccc(Nc2nn([C@H]3CC[C@H](N4CC5(CCC5)C4)C[C@@H]3C#N)cc2C(N)=O)cc1 (single isomer, unassigned) [Example 28-130, 1-[(1S,2S,4S or 1R,2R,4R)-4-(2-azaspiro[3.3]hept-2-yl)-2-cyanocyclohexyl]-3-{[4-(methylsulfonyl)phenyl]amino}-1H-pyrazole-4-carboxamide]
17 | 28 | N#C[C@H]1CC(N2CCC[C@H]2CF)CC[C@@H]1n1cc(C(N)=O)c(Nc2ccc(S(=O)(=O)C(F)(F)F)cc2)n1 (single isomer, unassigned) [Example 28-157, 1-{(1S,2S or 1R,2R)-2-cyano-4-[(2S)-2-(fluoromethyl)pyrrolidin-1-yl]cyclohexyl}-3-({4-[(trifluoro-methyl)sulfonyl]phenyl}amino)-1H-pyrazole-4-carboxamide]
18 | 82 | N#C[C@H]1C[C@H](NCCC(F)(F)F)CC[C@@H]1n1cc(C(N)=O)c(Nc2ccc(S(=O)(=O)C(F)(F)F)cc2)n1 (single isomer, unassigned) [Example 28-167, 1-{(1S,2S,4R or 1R,2R,4S)-2-cyano-4-[(3,3,3-trifluoropropyl)amino]cyclo-hexyl}-3-({4-[(trifluoro-methyl)sulfonyl]phenyl}amino)-1H-pyrazole-4-carboxamide]
19 | 14 | N#C[C@H]1C[C@@H](O)CC[C@@H]1n1cc(C(N)=O)c(Nc2ccc(Cl)nc2)n1 (single isomer, unassigned) [Example 33-14, 3-[(6-chloropyridin-3-yl)amino]-1-[(1S,2S,4S or 1R,2R,4R)-2-cyano-4-hydroxycyclohexyl]-1H-pyrazole-4-carboxamide]
